From ChEMBL document CHEMBL1201862, “PubChem BioAssay data set” (2004)
One block for each molecule: values may come before it. Active and inactive are the calls of the source.

Tests used:
Format in all cases: functional
[1] = target: T1, Short transient receptor potential channel 4 (Mus musculus, UniProt Q9QUQ5); test: block of DAMGO-driven TRPC4 calcium entry – cell-based, HEK293 TRPC4/mu-opioid, Fluo-4 calcium, dose response (AID 434942);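 further: potency of inhibitors blocking the TRPC4 calcium response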
T1 sequence (Q9QUQ5 whole entry): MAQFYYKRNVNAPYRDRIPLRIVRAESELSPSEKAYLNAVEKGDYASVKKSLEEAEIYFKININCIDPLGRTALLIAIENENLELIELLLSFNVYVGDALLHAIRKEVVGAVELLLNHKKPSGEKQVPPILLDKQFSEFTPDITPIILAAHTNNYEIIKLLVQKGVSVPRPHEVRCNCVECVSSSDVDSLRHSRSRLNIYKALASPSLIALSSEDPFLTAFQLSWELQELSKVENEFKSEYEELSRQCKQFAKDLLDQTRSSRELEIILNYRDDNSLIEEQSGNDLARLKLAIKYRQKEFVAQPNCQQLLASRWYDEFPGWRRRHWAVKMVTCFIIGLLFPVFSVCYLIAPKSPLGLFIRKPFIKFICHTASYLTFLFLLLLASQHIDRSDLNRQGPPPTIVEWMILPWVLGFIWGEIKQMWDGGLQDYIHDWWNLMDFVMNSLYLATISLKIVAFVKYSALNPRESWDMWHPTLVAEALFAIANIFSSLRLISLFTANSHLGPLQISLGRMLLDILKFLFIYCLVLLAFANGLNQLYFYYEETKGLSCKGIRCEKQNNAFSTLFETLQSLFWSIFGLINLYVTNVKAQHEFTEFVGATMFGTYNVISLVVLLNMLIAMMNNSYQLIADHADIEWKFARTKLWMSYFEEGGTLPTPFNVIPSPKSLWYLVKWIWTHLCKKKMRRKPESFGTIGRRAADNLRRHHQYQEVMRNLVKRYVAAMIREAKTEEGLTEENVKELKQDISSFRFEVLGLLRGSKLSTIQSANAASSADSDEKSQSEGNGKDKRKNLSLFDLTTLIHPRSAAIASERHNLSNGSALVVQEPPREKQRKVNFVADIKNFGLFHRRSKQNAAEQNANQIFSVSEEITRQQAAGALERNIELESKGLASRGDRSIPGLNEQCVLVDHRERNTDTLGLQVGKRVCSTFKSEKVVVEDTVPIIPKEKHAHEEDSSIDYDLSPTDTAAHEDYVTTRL

[2] = Luminescence Cell-Based Dose Retest to Confirm Inhibitors of Cancer Stem Cells. [Related pubchem assays (depositor defined):AID2717, AID2721]; conditions: Homo sapiens
[3] = target: T2, Heat shock factor protein 1 (Mus musculus, UniProt P38532); test: enhancement of HSF1-driven luciferase signal – cell-based, NIH3T3, luminescence, dose retest, confirmation (AID 435004);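 further: stress induced by proteasome inhibitor MG132 added 30 min after compound; luciferase reporter driven by HSF1 response element in NIH3T3 cells; actives raise luminescence as potentiators of the MG132 stress response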
T2 sequence (P38532 whole entry): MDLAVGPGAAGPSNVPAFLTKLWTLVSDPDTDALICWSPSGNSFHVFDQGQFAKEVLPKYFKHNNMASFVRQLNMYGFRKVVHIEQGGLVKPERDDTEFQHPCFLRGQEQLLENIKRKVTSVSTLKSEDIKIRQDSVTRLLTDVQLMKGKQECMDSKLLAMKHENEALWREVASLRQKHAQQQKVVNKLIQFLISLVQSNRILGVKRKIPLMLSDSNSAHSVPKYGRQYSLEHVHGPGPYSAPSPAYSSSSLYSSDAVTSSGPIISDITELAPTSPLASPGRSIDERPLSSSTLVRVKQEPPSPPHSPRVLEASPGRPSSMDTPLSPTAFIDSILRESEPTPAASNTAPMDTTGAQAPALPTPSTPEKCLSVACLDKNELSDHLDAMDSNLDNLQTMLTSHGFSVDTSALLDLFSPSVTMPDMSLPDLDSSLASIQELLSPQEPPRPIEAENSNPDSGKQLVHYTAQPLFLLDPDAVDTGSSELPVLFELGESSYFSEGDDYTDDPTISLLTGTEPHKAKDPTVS

Genome polyprotein = Genome polyprotein (dengue virus type 2, UniProt P29990); test: flavivirus cap methylation enzyme inhibition – biochemical, confirmation dose response, primary screen (AID 588689)
Sequence of Genome polyprotein (P29990 2492-3391 limits assumed): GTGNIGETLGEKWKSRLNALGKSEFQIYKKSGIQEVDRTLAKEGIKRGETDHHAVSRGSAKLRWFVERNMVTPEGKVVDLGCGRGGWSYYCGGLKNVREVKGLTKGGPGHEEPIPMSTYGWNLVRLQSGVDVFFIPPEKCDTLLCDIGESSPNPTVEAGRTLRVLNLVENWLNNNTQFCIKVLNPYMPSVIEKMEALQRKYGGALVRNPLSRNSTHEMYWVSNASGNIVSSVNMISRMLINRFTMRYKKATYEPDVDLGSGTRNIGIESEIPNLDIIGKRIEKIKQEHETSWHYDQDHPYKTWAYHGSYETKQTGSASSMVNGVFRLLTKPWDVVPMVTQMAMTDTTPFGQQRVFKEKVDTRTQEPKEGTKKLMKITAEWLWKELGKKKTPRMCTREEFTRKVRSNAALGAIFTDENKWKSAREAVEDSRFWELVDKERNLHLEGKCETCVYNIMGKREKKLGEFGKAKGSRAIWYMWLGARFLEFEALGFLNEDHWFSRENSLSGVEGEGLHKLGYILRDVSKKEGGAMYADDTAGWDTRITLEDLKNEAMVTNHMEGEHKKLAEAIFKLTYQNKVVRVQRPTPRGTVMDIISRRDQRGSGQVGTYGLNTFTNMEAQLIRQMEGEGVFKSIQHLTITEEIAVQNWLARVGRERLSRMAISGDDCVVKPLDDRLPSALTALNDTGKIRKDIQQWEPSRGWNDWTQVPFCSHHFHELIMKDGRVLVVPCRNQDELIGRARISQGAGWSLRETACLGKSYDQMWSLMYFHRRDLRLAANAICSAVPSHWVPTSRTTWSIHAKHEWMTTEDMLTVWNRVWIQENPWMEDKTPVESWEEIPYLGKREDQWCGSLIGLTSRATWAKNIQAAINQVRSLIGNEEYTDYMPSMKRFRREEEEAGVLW

[4] = target: T3, DNA repair and recombination protein RAD54-like (Homo sapiens, UniProt Q92698); test: RAD54 Holliday junction migration blockers – biochemical, fluorescence, cherry-picked samples, dose series, confirmation (AID 651657)
T3 sequence (Q92698 whole entry): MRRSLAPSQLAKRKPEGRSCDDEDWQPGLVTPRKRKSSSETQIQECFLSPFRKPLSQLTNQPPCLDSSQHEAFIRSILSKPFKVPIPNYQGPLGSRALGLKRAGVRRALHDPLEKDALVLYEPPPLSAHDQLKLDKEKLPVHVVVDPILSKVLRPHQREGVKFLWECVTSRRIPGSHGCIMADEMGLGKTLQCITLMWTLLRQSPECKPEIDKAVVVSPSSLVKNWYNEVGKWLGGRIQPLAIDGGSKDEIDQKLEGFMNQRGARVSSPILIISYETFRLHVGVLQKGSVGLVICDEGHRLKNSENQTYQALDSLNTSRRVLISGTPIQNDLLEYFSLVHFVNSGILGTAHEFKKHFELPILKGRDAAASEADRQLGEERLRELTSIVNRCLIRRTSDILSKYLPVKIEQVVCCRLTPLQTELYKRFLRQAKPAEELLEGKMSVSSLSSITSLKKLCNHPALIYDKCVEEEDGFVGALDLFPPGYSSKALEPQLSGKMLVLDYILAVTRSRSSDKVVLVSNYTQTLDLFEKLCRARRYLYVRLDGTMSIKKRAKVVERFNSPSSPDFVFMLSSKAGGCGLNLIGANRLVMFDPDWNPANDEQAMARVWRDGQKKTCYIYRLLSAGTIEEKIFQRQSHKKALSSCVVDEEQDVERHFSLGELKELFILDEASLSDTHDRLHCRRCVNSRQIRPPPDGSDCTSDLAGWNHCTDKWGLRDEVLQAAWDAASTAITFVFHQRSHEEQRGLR

[5] = target: T4, Polyadenylate-binding protein 1 (Homo sapiens, UniProt P11940); test: MLLE binding blockers, Cy5 peptide tracer – biochemical, fluorescence polarization, Cy5-PAM2 peptide, secondary, miRNA deadenylation inhibitor project, dose response (AID 602260); conditions: read-out: IC50_Mean
T4 sequence (P11940 whole entry, the tested form may be a part): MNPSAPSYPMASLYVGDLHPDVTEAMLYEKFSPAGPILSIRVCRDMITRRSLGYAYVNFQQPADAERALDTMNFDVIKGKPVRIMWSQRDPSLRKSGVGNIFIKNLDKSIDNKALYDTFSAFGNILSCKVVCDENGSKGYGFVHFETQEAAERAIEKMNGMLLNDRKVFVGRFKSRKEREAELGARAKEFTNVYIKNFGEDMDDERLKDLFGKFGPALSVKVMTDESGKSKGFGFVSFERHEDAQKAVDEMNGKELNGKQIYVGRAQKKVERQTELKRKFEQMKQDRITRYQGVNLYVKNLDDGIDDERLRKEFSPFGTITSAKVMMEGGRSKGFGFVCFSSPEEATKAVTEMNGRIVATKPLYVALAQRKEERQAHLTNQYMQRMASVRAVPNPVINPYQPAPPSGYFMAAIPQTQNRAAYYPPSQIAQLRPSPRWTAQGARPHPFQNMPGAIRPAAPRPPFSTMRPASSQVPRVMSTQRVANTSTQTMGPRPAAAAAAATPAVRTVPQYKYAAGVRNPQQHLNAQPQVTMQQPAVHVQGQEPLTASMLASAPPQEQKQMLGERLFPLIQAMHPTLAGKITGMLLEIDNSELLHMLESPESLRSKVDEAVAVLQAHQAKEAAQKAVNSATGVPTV

[6] = target: T4, Polyadenylate-binding protein 1; test: MLLE domain peptide-binding blockers, IC50 – biochemical, fluorescence polarization, FITC-PAM2 peptide, dose response (AID 602259); conditions: read-out: IC50_Mean

- EC50 [1]: 0.531 µM (active)
SMILES: Brc1ccc(CN2C3=NCCCN3c3ccccc32)cc1

SMILES: CCCn1nc([N+](=O)[O-])c(C(C#N)c2nc3ccccc3o2)c(Cl)c1=O (stereo not drawn)
- AC50 [2]: 4.55 µM (active)
- EC50 [3]: > 260 µM (inactive)
- IC50 (Genome polyprotein): 34.7 µM (active)
- EC50 [1]: 6.68 µM (active)

- AC50 [4]: 34 µM (active)
- EC50 [3]: > 260 µM (inactive)
SMILES: CCOC(=O)c1cnc2ccc(OC)cc2c1Nc1ccc(N2CCN(C)CC2)cc1

- EC50 [1]: 5.31 µM (active)
SMILES: Cc1ccc(C)c2nc3sc(C(=O)O)cc3cc12

- EC50 [1]: 4.73 µM (active)
SMILES: O=C(NCCN1CCOCC1)c1ccc2c(c1)N(Cc1ccc(F)cc1)C(=O)CS2

- IC50 [5]: > 66 µM (inactive)
- IC50 [6]: > 66 µM (inactive)
SMILES: CCOc1ccc(Cn2c(SCCCCC#N)nc3c2c(=O)n(C)c(=O)n3C)cc1OCC

- AC50 [4]: 50.9 µM (active)
SMILES: CCCCN(C)CCNC(=O)c1cc2cc3ccc(OC)cc3nc2o1

- EC50 [1]: 5.96 µM (active)
SMILES: Cc1ccc(C(=O)NC(=S)Nc2c(C)ccc3nsnc23)cc1
